Measurements: PubChem BioAssay (NCI)
Several values for one entry are separate records, joined by “and”; a condition that tells them apart may be missing. Equal values may be shown once.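 In this assay, cells in 96-well plates receive the compound at five concentrations for 48 hours. Endpoints are linearly interpolated between the surrounding concentrations. GI50 = concentration required for 50% inhibition of growth. TGI: total growth inhibition.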

Columns and labels:
Assay in all cases: NCI tumour cell line growth inhibition, 48 h
DU-145 prostate = tested on: DU-145 prostate
HS 578T breast = tested on: HS 578T breast
KM12 colon = tested on: KM12 colon
M14 melanoma = tested on: M14 melanoma
NCI/ADR-RES ovarian = tested on: NCI/ADR-RES ovarian
RPMI-8226 leukemia = tested on: RPMI-8226 leukemia
SK-MEL-2 melanoma = tested on: SK-MEL-2 melanoma
SK-MEL-5 melanoma = tested on: SK-MEL-5 melanoma
SN12C renal = tested on: SN12C renal
SW-620 colon = tested on: SW-620 colon

SMILES	GI50 (DU-145 prostate)	TGI (DU-145 prostate)	GI50 (HS 578T breast)	TGI (HS 578T breast)	GI50 (KM12 colon)	TGI (KM12 colon)	GI50 (M14 melanoma)	TGI (M14 melanoma)	GI50 (NCI/ADR-RES ovarian)	GI50 (RPMI-8226 leukemia)	TGI (RPMI-8226 leukemia)	GI50 (SK-MEL-2 melanoma)	TGI (SK-MEL-2 melanoma)	GI50 (SK-MEL-5 melanoma)	TGI (SK-MEL-5 melanoma)	GI50 (SN12C renal)	TGI (SN12C renal)	GI50 (SW-620 colon)	TGI (SW-620 colon)	TGI (NCI/ADR-RES ovarian)
CCCCCCN1CCN(Cc2ccc(N(CC)CC)cc2)C(=O)C1=O	3.38 µM	48.7 µM	3.14 µM	27.7 µM	2.47 µM	82.4 µM	2.3 µM	9.08 µM	2.72 µM	3.63 µM	19.2 µM	3.57 µM	21.2 µM	0.412 µM	11.3 µM	5.19 µM	93.9 µM	3.07 µM	> 100 µM	
Cc1ccc2nc(N/N=C/c3cccc(C)n3)cc(C)c2c1		36.3 µM		50.9 µM		27.7 µM		46.9 µM			42.5 µM		34.8 µM		36.4 µM		34.2 µM		40.4 µM	48 µM
O=[N+]([O-])/C=C/c1ccc([N+](=O)[O-])cc1	1.96 µM	3.77 µM	2.64 µM	9.87 µM	2.25 µM	4.71 µM	1.55 µM	3.22 µM	8.71 µM	2.25 µM	5.95 µM	14.3 µM	28.1 µM	1.76 µM	4.51 µM	2.37 µM	6.83 µM	1.49 µM	3.21 µM	73.8 µM
CC[C@@]1(O)C(=O)OCc2c1cc1n(c2=O)Cc2cc3c(NC(=O)CN)cccc3nc2-1		1.98 µM		> 100 µM		34.6 µM		2.8 µM			28.6 µM		14.8 µM		2.32 µM		17.1 µM		> 100 µM	> 100 µM
C[C@@H]1COC(Nc2ccc3ncnc(Nc4ccc(OCc5nccs5)c(Cl)c4)c3c2)=N1	3.19 µM and 3.26 µM	> 10 µM and 19.3 µM	5.23 µM and 5.24 µM	> 10 µM and 48.9 µM	4.38 µM and 4.14 µM	> 10 µM and 33.8 µM	3.16 µM and 4.12 µM	> 10 µM and 16.9 µM	2.6 µM and 2.64 µM	3.29 µM and 2.56 µM	> 10 µM and 11.1 µM	4.43 µM and 3.47 µM	> 10 µM and 11.1 µM	2.21 µM and 2.98 µM	6.42 µM and 10.6 µM	6.15 µM and 4.86 µM	> 10 µM and 26 µM	> 10 µM and 14.6 µM	> 10 µM and 59.7 µM	> 10 µM and 12 µM
O=C1C=CC(=O)c2c1ncc1c2nc2sccn21	12.8 µM	40 µM	12.7 µM	50.8 µM	> 100 µM	> 100 µM	15.7 µM	39.8 µM	29.3 µM	12.7 µM	47.4 µM	42.8 µM	> 100 µM	16.9 µM	37.3 µM	23.3 µM	48.3 µM	14.7 µM	77.7 µM	> 100 µM
COc1cc2c(cc1OC)-c1c(c3ccc([N+](=O)[O-])cc3c(=O)n1CCCN)C2=O	0.684 µM	1.37 µM	9.12 µM	20.2 µM	2.1 µM	4.92 µM	0.00971 µM	1.57 µM	0.342 µM	0.812 µM	3.52 µM	5.95 µM	14.1 µM	2.5 µM	8.47 µM	0.695 µM	6.82 µM	0.491 µM	5.92 µM	2.87 µM
CNCCOC(=O)/C=C1/CCC2C(C(O)CC3C(C)(C(=O)OC)CCCC23C)C1C (configuration not stated)	0.016 µM	0.0305 µM	< 0.01 µM	0.298 µM	0.0339 µM	0.111 µM	0.0202 µM	0.0424 µM	0.0185 µM	0.0248 µM	0.0657 µM	0.0317 µM	0.0805 µM	0.0163 µM	0.0321 µM	< 0.01 µM	0.112 µM	0.018 µM	0.0394 µM	0.0378 µM
Cc1ccc(F)cc1NC(=O)c1cc(Cl)ccc1Nc1ccccc1	> 100 µM	> 100 µM	36.1 µM	> 100 µM	> 100 µM	> 100 µM			> 100 µM	51.2 µM	> 100 µM	> 100 µM	> 100 µM	> 100 µM	> 100 µM	> 100 µM	> 100 µM	> 100 µM	> 100 µM	> 100 µM
COc1cc2c(cc1OCCCN1CCN(c3cc(=O)oc4c(C)c(OC)ccc34)CC1)N=C[C@@H]1CCCN1C2=O	0.935 µM	> 100 µM	2.35 µM	15.6 µM	1.65 µM	9.11 µM	1.24 µM	2.69 µM	16.6 µM	0.214 µM	1.32 µM	1.09 µM	3.98 µM	1.61 µM	3.83 µM	1.6 µM	6.51 µM	1.81 µM	> 100 µM	> 88.5 µM
COc1ccc(C(=O)CC(c2ccc(OC)c(OC)c2)c2c(O)c3ccccc3oc2=O)cc1OC (configuration not stated)		> 100 µM		> 100 µM		> 100 µM		> 100 µM			> 100 µM		> 100 µM		> 100 µM		> 100 µM		> 100 µM	> 100 µM
COc1ccc(/C=C\c2cc(OC)c(OC)c(OC)c2)cc1OCC(=O)Nc1nc2ccc(OC(F)(F)F)cc2s1	4.11 µM	> 100 µM	4.33 µM	> 100 µM	4.48 µM	51.5 µM	4.36 µM	> 100 µM	2.7 µM	5.83 µM	> 100 µM	3.29 µM	> 100 µM	3.26 µM	22.9 µM	6.42 µM	> 100 µM	5.65 µM	> 100 µM	8.62 µM
Cc1ccccc1C(C(=O)NC1CCCCC1)N(C(=O)Cn1ccnc1C)c1cccc(F)c1 (configuration not stated)	> 76.6 µM	> 100 µM	28.2 µM	> 100 µM	> 100 µM	> 100 µM	> 100 µM	> 100 µM	> 100 µM	> 100 µM	> 100 µM	21.3 µM	79.3 µM	> 100 µM	> 100 µM	> 53.4 µM	> 100 µM	> 100 µM	> 100 µM	> 100 µM
